Test results as given in US8022056B2, “Compositions and methods for the treatment of cancer” (Tautatis, Inc, priority 2006, dated 2011).

Legend:
ACHN xenograft = assay: Mouse xenograft model ACHN; format: in vivo; conditions: Kidney, CDKN2A; oral twice daily dosing
Experimental: (§1) The efficacy of the compound of the formula 1 was confirmed in mouse tumor xenograft models, employing the NMRI(nu/nu) strain of mice. For example, cells from the human tumor cell lines MDA-MB-231, U373, and HT29 were pre-incubated subcutaneously in several nude mice to select for the most robustly growing cell population. After having grown to a sufficient size after 2-3 weeks, a piece of about 2 mm^3 volume of the most suitable tumor was transplanted subcutaneously into the region of the thoracic mammary fat pads, an area ensuring a high degree of vascularization of the grafted tissue. […] During the course of the treatment, the weight of the animals and the size of the transplanted tumor was monitored three times a week. […] These doses are best determined separately for each individual mouse strain employed.
(§2) To establish a solid tumour 3×10^6 tumor cells suspended in 100 μl of serum free medium (RPMI) were inoculated subcutaneously into the region of the thoracic mammary fat pads of 5 Male NMRI(nu/nu) mice of 8-10 weeks of age. […] During the course of the treatment body weight changes and tumor growth were recorded three times a week. Growth curves were plotted together with standard deviations and the significance of differences was determined using an unpaired t-test in FIG. 11. […]

SK-MEL-5 xenograft = assay: Mouse xenograft model SK-MEL-5; format: in vivo; conditions: Melanoma, Raf/CDKN2A; oral twice daily dosing
Experimental: as §1, §2

[1] = tested on: HT29 colon cancer cell line; assay: Long-term growth inhibition, crystal violet staining; format: cell-based, human; conditions: 10 nM
Experimental: (§3) For proliferation assays tumor cell suspensions (100 μl/well) were seeded into 96-well flat bottomed microtitration plates at a density of ca. 15 cells/microscopic field (magnification 320×). After 2-3 days the culture medium was removed by suction and replaced by fresh medium (200 μl/well) containing varying concentrations of the compound of the formula 1 or vehicle (0.5% DMSO). Compound 1 was added as […] concentrated feed solutions. On every plate 16 wells served as controls and 16 wells were used per concentration of 1. After various times of incubation the cells were fixed with glutardialdehyde and stored in a refrigerator. At the end of the assay all plates were processed simultaneously (staining with 0.02% aqueous crystal violet solution (100 μl/well). Excess dye was removed by rinsing the trays with water for 20 min. The stain bound by the cells was redissolved in 70% ethanol (180 μl/well) while shaking the microplates for about 3 hours. Absorbance (proportional to cell mass) was measured at 578 nm using a BIOTEK 309 Autoreader. The results (mean values±standard deviation) were plotted as growth curves.
The HT29 human colon cancer cell line (obtained from ATCC, Rockville, USA) was cultured as above. Treatment with the compound of the formula 1 and analysis of growth inhibition was performed analogous to Example 3.

[2] = tested on: MDA-MB-231 breast cancer cell line; assay: as above; format: cell-based, human
Experimental: The human estrogen receptor and EGF receptor negative MDA-MB-231 (HTB 26) breast cancer cell line (obtained from ATCC, Rockville, USA) were cultured in McCoy's 5A medium containing L-glutamine, 2.2 g/l NaHCO3 and 5% fetal calf serum. Cells were maintained in a water saturated atmosphere (95% air/5% carbon dioxide) at 37° C. in 75-cm^2 culture flasks, and were serially passaged following trypsinization using 0.05% trypsin/0.02% EDTA.
as §3

T-47D xenograft = assay: Mouse xenograft model T-47D; format: in vivo; conditions: Breast, p53/PI3K; oral twice daily dosing
Experimental: as §1, §2

PKC = assay: Kinase inhibition under standard conditions, PKC; format: biochemical
NCI-H23 xenograft = assay: Mouse xenograft model NCI-H23; format: in vivo; conditions: Lung, Ras/p53; oral twice daily dosing
Experimental: as §1, §2

Question: CNC(=O)[C@@]1(N)C[C@H]2O[C@]1(C)n1c3ccccc3c3c4c(c5c6ccccc6n2c5c31)C(=O)NC4 [Compound 1] was tested. Which “Mean % Inhibition” value (ACHN xenograft) did it give?
Answer: The value was 86%.

Question: What about the “N tumors with no/neg. growth” value (ACHN xenograft) of the same compound?
Answer: The value was 5 of 10.

Question: And the “Mean % Inhibition” value (SK-MEL-5 xenograft)?
Answer: Its value is 122%.

Question: And the “N tumors with no/neg. growth” value (SK-MEL-5 xenograft)?
Answer: Its value is 7 of 10.

Question: What about the “proliferation of HT29 cells” value [1] of the same compound?
Answer: The value was “sufficient to block the proliferation”.

Question: And the “growth of MDA-MB-231 cells” value ([2]; 10 nM, 1 week of exposure)?
Answer: The value was “almost completely prevents the growth”.

Question: What about the “prolonged effect on growth after a single short exposure” value ([2]; MDA-MB-231, single exposure 1 to 6 hrs, 100 nM) of the same compound?
Answer: The value was “sustained inhibition over at least one week”.

Question: And the “anti-tumor activity compared with cis-platin” value ([2]; MDA-MB-231 growth)?
Answer: Its value is “substantially more potent and efficacious”.

Question: And the “anti-tumor activity compared with vinblastine” value ([2]; MDA-MB-231 growth)?
Answer: Its value is “matches the activity of vinblastine”.

Question: And the “Mean % Inhibition” value (T-47D xenograft)?
Answer: The value was 81%.

Question: What about the “N tumors with no/neg. growth” value (T-47D xenograft) of the same compound?
Answer: The value was 4 of 10.

Question: What about the IC50 (PKC) of the same compound?
Answer: The IC50 was 1280 nM.

Question: And the “Mean % Inhibition” value (NCI-H23 xenograft)?
Answer: The value was 92%.

Question: And the “N tumors with no/neg. growth” value (NCI-H23 xenograft)?
Answer: Its value is 5 of 10.
